# Assay results taken from patent US11053226B2, “KRAS G12C inhibitors and methods of using the same” (Amgen Inc., priority 2018, dated 2021).
# Like-named read-outs stand apart in the source and are kept apart here.
# Target: GDP-bound KRAS protein (aa 1-169), containing both G12C and C118A amino acid substitutions (Homo sapiens (Human), UniProt P01116, C118A/G12C)
# Assay: Coupled Nucleotide Exchange Assay
# Assay type: biochemical
# Experimental: For compounds in Table 9, the following assay conditions were employed:
# Coupled Nucleotide Exchange Assay:
# The assay plates were then read on a PerkinElmer EnVision Multilabel Reader, using AlphaScreen® technology, and data were analyzed using a 4-parameter logistic model to calculate IC50 values.
# [1] = first Coupled Exchange column, compound pre-incubation probably 5 min (rest of head not shown; b435 lists 5 min, 2 hours or 20 hours), read-out: Coupled Exchange IC50
# [2] = third Coupled Exchange column, compound pre-incubation probably 20 hours (rest of head not shown; b435 lists 5 min, 2 hours or 20 hours), read-out: Coupled Exchange IC50
# [3] = read-out: Coupled Exchange IC50 (2 h), 2 h compound pre-incubation
# [4] = read-out: Coupled Exchange IC50 (20 h), 20 h compound pre-incubation
# [5] = second Coupled Exchange column, read-out: Coupled Exchange IC50
# [6] = read-out: Coupled Exchange IC50 (5 min), 5 min compound pre-incubation
# GDP-bound KRAS protein (aa 1-169), containing both G12C and C118A amino acid substitutions, sequence (P01116 other isoform, or with tags, fused parts or gaps G12C/C118A): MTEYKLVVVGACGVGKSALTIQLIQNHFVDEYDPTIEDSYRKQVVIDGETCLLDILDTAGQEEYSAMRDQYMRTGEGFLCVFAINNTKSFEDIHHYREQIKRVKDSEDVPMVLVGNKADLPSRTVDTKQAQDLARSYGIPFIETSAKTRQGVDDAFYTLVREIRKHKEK
SMILES,IC50 [3] [µM],IC50 [4] [µM],further results
C=CC(=O)N1CC(C)(NC(=O)Cn2ccc3cc(Br)ccc32)C1 [Example 352],–,–,IC50 [1]: > 250 µM; IC50 [2]: 25 µM
C=CC(=O)N1CC(NC(=O)Cn2c(C)c(-c3ccccc3Cc3ccccc3)c3cc(Cl)cc(C)c32)C1 [Example 336],–,–,IC50 [1]: 2.11 µM
C=CC(=O)N1CC(NC(=O)Cn2ccc3cc(OC)ccc32)C1 [Example 236],> 250,> 250,–
C=CC(=O)N1CC(NC(=O)Cn2c(C#N)c(I)c3cc(Br)ccc32)C1 [Example 304],–,–,IC50 [5]: 7.24 µM; IC50 [2]: 1.24 µM
C=CC(=O)N1CC(NC(=O)Cn2c(C)cc3cc(Br)ccc32)C1 [Example 347],–,–,IC50 [1]: > 250 µM; IC50 [2]: 1.47 µM
C=CC(=O)N1CC(NC(=O)Cn2c(C)c(-c3nccnc3Cl)c3cc(Cl)ccc32)C1 [Example 281],–,–,IC50 [5]: 13.6 µM; IC50 [2]: 2.32 µM
C=CC(=O)N1CC(NC(=O)CN2Cc3c(n(C(C)=O)c4ccc(Br)cc34)C2)C1 [Example 242],> 250,7.66,–
C=CC(=O)N1C[C@@H](NC(=O)Cn2ccc3cc(Br)ccc32)[C@H]1C [Example 362],–,–,IC50 [1]: > 250 µM; IC50 [2]: > 250 µM
C=CC(=O)N1CC(NC(=O)Cn2ccc3cc(CC)ccc32)C1 [Example 277],–,–,IC50 [5]: > 250 µM; IC50 [2]: > 250 µM
C=CC(=O)N1CC(NC(=O)Cn2ccc3cc(Br)cc(F)c32)C1 [Example 267],15.5,2.25,–
C=CC(=O)N1CC(NC(=O)Cn2cc(I)c3cc(C(F)(F)F)ccc32)C1 [Example 257],9.12,0.97,IC50 [6]: 64.7 µM
C=CC(=O)N1CC(NC(=O)Cn2cc(-c3ccc(F)cc3F)c3cc(-c4ccc(F)cc4F)ccc32)C1 [Example 210],> 250,10.9,–
C=CC(=O)N1CC(N(C)C(=O)Cn2c(C)c(-c3cncnc3C(C)C)c3cc(Cl)cc(C)c32)C1 [Example 339],–,–,IC50 [1]: 2.88 µM
C=CC(=O)N1CC(NC(=O)Cn2cc(-c3cccc(C#N)c3)c3cc(Br)ccc32)C1 [Example 216],12.9,3,–
C=CC(=O)N1CC(NC(=O)Cn2c3c(c4cc(Br)ccc42)CCN(C(=O)OCc2ccccc2)C3)C1 [Example 227],12.3,2.61,–
C=CC(=O)N1CC(NC(=O)Cn2ccc3cc(C(F)(F)F)ccc32)C1 [Example 235],> 250,5.45,–
C=CC(=O)N1CC(NC(=O)Cn2c3ccc(Br)cc3c3ccc(Oc4ccc(F)cc4)nc32)C1 [Example 234],> 250,0.32,–
C=CC(=O)N1CC(NC(=O)Cn2cc(C(=O)C(=O)OCC)c3ccccc32)C1 [Example 200],> 250,> 250,–
C=CC(=O)N1CC(NC(=O)Cn2cc(CC(=O)N3CCC(c4ncc[nH]4)CC3)c3cc(Br)ccc32)C1 [Example 327],–,–,IC50 [1]: 45.9 µM
C=CC(=O)N1CC(NC(=O)Cn2c(C(=O)NCc3ccc(C(=O)O)s3)cc3cc(Br)ccc32)C1 [Example 225],> 250,19.8,–
C=CC(=O)N1CC(NC(=O)Cn2ccc3cc(Cl)ccc32)C1 [Example 187],> 250,7.27,IC50 [6]: > 250 µM
C=CC(=O)N1CC(NC(=O)Cn2cc(Cc3ccccc3)c3ccccc32)C1 [Example 213],31.1,5.09,–
C=CC(=O)N1CC(NC(=O)Cn2c3c(c4cc(Br)ccc42)CCNC3)C1 [Example 250],89.4,5.69,–
C=CC(=O)N1CC(NC(=O)Cn2ccc3c(F)c(Br)ccc32)C1 [Example 255],> 250,4.89,–
C=CC(=O)N1CC(NC(=O)Cn2cc(CC#N)c3cc(Br)ccc32)C1 [Example 214],33.8,4.48,–

SMILES,IC50 [3] [µM],IC50 [4] [µM],further results
C=CC(=O)N1CC(NC(=O)Cn2ccc3cc(SC)ccc32)C1 [Example 266],> 250,> 62.5,–
C=CC(=O)N1CC(NC(=O)Cn2c(C)c(-c3cccnc3Br)c3cc(Cl)ccc32)C1 [Example 305],–,–,IC50 [5]: 2.98 µM; IC50 [2]: 0.81 µM
C=CC(=O)N1CC(NC(=O)Cn2cc(Cc3ccccc3)c3cc(Br)ccc32)C1 [Example 231],10.3,2.05,–
C=CC(=O)N1CC(NC(=O)Cn2c3ccc(Br)cc3c3ccc(Cl)nc32)C1 [Example 218],> 250,> 250,–
C=C(CCO)C(=O)N1CC(NC(=O)Cn2c(C)c(C(=O)N3CCc4c(cccc4OC)C3)c3cc(Br)ccc32)C1 [Example 313],–,–,IC50 [5]: > 250 µM
C=CC(=O)N1CC(NC(=O)Cn2cc(-c3ccc4ccccc4c3)c3cc(-c4ccc5ccccc5c4)cc(C)c32)C1 [Example 263],> 250,16.3,–
C=CC(=O)N1CC(NC(=O)Cn2cc(I)c3ccccc32)C1 [Example 212],27.4,6.8,IC50 [6]: > 250 µM
C=CC(=O)N1CC(NC(=O)Cn2c(C(=O)NCCc3ccccc3)cc3cc(Br)ccc32)C1 [Example 189],15.6,1.62,–
C=CC(=O)N1CC(NC(=O)Cn2c(-c3ncccn3)cc3cc(Cl)ccc32)C1 [Example 196],45.6,6.09,–
C=CC(=O)N1CC(NC(=O)Cn2c3c(c4cc(Br)ccc42)CCCC3=O)C1 [Example 262],> 250,3.31,–
C=CC(=O)N1CC(NC(=O)Cn2ccc3cc(Br)c(C)cc32)C1 [Example 186],26.6,4.47,IC50 [6]: > 250 µM
C=CC(=O)N1CC(NC(=O)Cn2c(C)c(-c3cncnc3C(C)C)c3cc(Cl)cc(C)c32)C1 [Example 338],–,–,IC50 [1]: 2.87 µM
C=CC(=O)N1CC(NC(=O)Cn2c(C)c(-c3cnccc3C3=CCOCC3)c3cc(Cl)cc(C)c32)C1 [Example 341],–,–,IC50 [1]: 2.44 µM
C=CC(=O)N1CC(n2nncc2Cn2ccc3cc(Br)ccc32)C1 [Example 359],–,–,IC50 [1]: > 250 µM; IC50 [2]: 7.66 µM
C=CC(=O)N1CC(NC(=O)Cn2c(C)c(-c3cnccc3C(C)C)c3cc(Cl)cc(C)c32)C1 [Example 325],–,–,IC50 [1]: 1.55 µM
C=CC(=O)N1CC(CO)(NC(=O)Cn2ccc3cc(Br)ccc32)C1 [Example 353],–,–,IC50 [1]: 182 µM; IC50 [2]: 92.6 µM
C=CC(=O)N1CC(NC(=O)Cn2c3c(c4cc(Br)ccc42)CCN(C(C)=O)C3)C1 [Example 252],19.4,2.49,–
C=CC(=O)N1CC(N(C)C(=O)Cn2ccc3cc(Br)ccc32)C1 [Example 346],–,–,IC50 [1]: > 250 µM; IC50 [2]: 2.73 µM
C=CC(=O)N1CC(NC(=O)Cn2cc(Br)c3cc([N+](=O)[O-])ccc32)C1 [Example 233],11.4,1.58,IC50 [6]: > 250 µM
C=CC(=O)N1CC(NC(=O)Cn2ccc3cc(Cl)c(Cl)cc32)C1 [Example 258],104,5.22,–
C=CC(=O)N1CC(C)(N(C)C(=O)Cn2ccc3cc(Br)ccc32)C1 [Example 356],–,–,IC50 [1]: > 250 µM; IC50 [2]: > 31.3 µM
C=CC(=O)N1CC(NC(=O)Cn2cc(CC(=O)NCc3ccccc3)c3cc(Br)ccc32)C1 [Example 226],8.23,1.66,–
C=CC(=O)N1CC(NC(=O)Cn2c(C)c(-c3cncnc3C3CCCCC3)c3cc(Cl)cc(C)c32)C1 [Example 342],–,–,IC50 [1]: 0.66 µM
C=CC(=O)N1CC(NC(=O)Cn2cc(-c3cccc(C(C)C)c3)c3cc(Br)cc(C)c32)C1 [Example 268],6.81,1.62,–
C=CC(=O)N1CC(NC(=O)Cn2ccc3cccc(Cl)c32)C1 [Example 203],> 250,> 250,–
